According to patent US20230233569A1 (Revolution Medicines, Inc., priority 2020, published 2023):
Read-outs that look alike come from different tables or passages of the source.

Experiments:
[1] = test system: NCI-H358 (K-Ras G12C); test: CellTiter-Glo cell viability assay, 5-day treatment; format: cell-based; settings: Homo sapiens
Experimental: Protocol: CellTiter-Glo® Cell Viability Assay
Note—The following protocol describes a procedure for monitoring cell viability of K-Ras mutant cancer cell lines in response to a compound of the invention. Other RAS isoforms may be employed, though the number of cells to be seeded will vary based on cell line used.
(§1) Test compounds (132.5 nL) were directly dispensed into the assay plates containing cells. […] On day 5, assay plates and their contents were equilibrated to room temperature for approximately 30 minutes. […] Luminescence was measured using the PerkinElmer Enspire. Data were normalized by the following: (Sample signal/Avg. DMSO)*100. The data were fit using a four-parameter logistic fit.
as §1, with “nl)” for “nL)”

[2] = biological target: KRAS G12C (Homo sapiens, UniProt P01116+P62937, G12C); test: Disruption of BRAF RBD interaction with Ras (FRET / MOA assay, with Cyclophilin A); format: biochemical
Chain of KRAS G12C (P01116 1-169 isoform P01116-2 G12C): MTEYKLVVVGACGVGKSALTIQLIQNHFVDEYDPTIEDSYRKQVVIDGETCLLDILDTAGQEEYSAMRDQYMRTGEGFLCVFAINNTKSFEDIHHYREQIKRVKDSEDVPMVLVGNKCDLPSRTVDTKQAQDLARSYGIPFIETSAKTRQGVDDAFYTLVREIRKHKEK
Chain of KRAS G12C (P62937 whole entry): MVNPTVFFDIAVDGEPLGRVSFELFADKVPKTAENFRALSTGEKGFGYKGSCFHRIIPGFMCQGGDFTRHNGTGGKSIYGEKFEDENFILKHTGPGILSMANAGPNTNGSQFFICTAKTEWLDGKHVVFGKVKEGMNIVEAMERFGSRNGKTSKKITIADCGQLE
Description: (§2) This protocol may also be executed substituting other Ras proteins or nucleotides.
(§3) The purpose of this biochemical assay was to measure the ability of test compounds to facilitate ternary complex formation between a nucleotide-loaded K-Ras isoform and Cyclophilin A; the resulting ternary complex disrupts binding to a BRAF^RBD construct, inhibiting K-Ras signaling through a RAF effector. Data is reported as IC50 values.
(§4) Compound was present in plate wells as a 10-point 3-fold dilution series starting at a final concentration of 30 μM. After incubation at 25° C. for 3 hours, a mixture of Anti-His Eu-W1024 and anti-GST allophycocyanin was then added to assay sample wells at final concentrations of 10 nM and 50 nM, respectively, and the reaction incubated for an additional 1.5 hours. […] Compounds that facilitate disruption of a K-Ras:RAF complex were identified as those eliciting a decrease in the TR-FRET ratio relative to DMSO control wells.
as §3, with “BRAF^RBDD” for “BRAF^RBD”

[3] = biological target: KRAS G12D (Homo sapiens, UniProt P01116+P62937, G12D); test: as above; format: biochemical
Chain of KRAS G12D (P01116 1-169 isoform P01116-2 G12D limits assumed): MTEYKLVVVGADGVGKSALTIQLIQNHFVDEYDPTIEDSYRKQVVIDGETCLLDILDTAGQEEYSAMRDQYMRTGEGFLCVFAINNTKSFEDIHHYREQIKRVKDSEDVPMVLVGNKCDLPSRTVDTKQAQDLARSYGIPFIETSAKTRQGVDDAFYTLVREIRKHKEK
Chain of KRAS G12D (P62937 whole entry): as the sequence (P62937 whole entry) above
Description: as §2, §3, §4
as §3, with “BRAF^RBDD” for “BRAF^RBD”

[4] = biological target: KRAS G12S (Homo sapiens, UniProt P01116+P62937, G12S); test: as above; format: biochemical
Chain of KRAS G12S (P01116 1-169 isoform P01116-2 G12S limits assumed): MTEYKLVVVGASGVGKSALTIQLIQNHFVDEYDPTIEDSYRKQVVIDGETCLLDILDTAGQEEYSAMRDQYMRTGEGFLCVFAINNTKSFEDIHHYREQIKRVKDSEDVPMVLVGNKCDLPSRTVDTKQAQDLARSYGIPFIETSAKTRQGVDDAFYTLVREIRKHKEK
Chain of KRAS G12S (P62937 whole entry): as the sequence (P62937 whole entry) above
Description: as §2, §3, §4
as §3, with “BRAF^RBDD” for “BRAF^RBD”

[5] = biological target: KRAS G12V (Homo sapiens, UniProt P01116+P62937, G12V); test: as above; format: biochemical
Chain of KRAS G12V (P01116 1-169 isoform P01116-2 G12V limits assumed): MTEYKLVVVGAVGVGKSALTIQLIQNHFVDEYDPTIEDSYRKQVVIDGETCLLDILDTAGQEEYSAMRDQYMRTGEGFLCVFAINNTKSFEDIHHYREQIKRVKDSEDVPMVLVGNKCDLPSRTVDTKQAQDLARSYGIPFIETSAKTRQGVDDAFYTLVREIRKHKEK
Chain of KRAS G12V (P62937 whole entry): as the sequence (P62937 whole entry) above
Description: as §2, §3, §4
as §3, with “BRAF^RBDD” for “BRAF^RBD”

[6] = biological target: KRAS G13C (Homo sapiens, UniProt P01116+P62937, G13C); test: as above; format: biochemical
Chain of KRAS G13C (P01116 1-169 isoform P01116-2 G13C): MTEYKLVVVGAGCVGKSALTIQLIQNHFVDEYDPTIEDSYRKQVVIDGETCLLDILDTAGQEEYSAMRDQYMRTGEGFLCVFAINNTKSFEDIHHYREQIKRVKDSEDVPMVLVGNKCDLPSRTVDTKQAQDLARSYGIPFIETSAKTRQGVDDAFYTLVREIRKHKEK
Chain of KRAS G13C (P62937 whole entry): as the sequence (P62937 whole entry) above
Description: as §2, §3, §4
as §3, with “BRAF^RBDD” for “BRAF^RBD”

[7] = biological target: KRAS G13D (Homo sapiens, UniProt P01116+P62937, G13D); test: as above; format: biochemical
Chain of KRAS G13D (P01116 1-169 isoform P01116-2 G13D limits assumed): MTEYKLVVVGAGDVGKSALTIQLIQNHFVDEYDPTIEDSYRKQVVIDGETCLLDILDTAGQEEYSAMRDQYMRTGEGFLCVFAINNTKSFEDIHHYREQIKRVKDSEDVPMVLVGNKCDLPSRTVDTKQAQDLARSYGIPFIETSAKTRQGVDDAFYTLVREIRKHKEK
Chain of KRAS G13D (P62937 whole entry): as the sequence (P62937 whole entry) above
Description: as §2, §3, §4
as §3, with “BRAF^RBDD” for “BRAF^RBD”

[8] = biological target: KRAS WT (Homo sapiens, UniProt P01116+P62937); test: as above; format: biochemical
Chain of KRAS WT (P01116 1-169 isoform P01116-2 limits assumed): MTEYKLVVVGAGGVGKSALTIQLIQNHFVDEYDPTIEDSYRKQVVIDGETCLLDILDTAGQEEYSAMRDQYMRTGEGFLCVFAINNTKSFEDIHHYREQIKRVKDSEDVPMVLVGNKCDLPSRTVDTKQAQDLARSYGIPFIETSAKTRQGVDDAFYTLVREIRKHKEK
Chain of KRAS WT (P62937 whole entry): as the sequence (P62937 whole entry) above
Description: as §2, §3, §4
as §3, with “BRAF^RBDD” for “BRAF^RBD”

[9] = biological target: NRAS G12C (Homo sapiens, UniProt P01111+P62937, G12C); test: as above; format: biochemical; settings: NRAS G12C; read-out: NRAS G12C FRET data IC50
Chain of NRAS G12C (P01111 whole entry G12C): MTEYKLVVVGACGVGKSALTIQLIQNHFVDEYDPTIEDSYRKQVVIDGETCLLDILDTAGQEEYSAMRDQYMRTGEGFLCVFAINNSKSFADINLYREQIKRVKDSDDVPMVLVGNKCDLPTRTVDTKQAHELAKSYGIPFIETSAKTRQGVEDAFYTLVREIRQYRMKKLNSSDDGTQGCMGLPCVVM
Chain of NRAS G12C (P62937 whole entry): as the sequence (P62937 whole entry) above
Description: as §2, §3, §4
as §3, with “BRAF^RBDD” for “BRAF^RBD”

[10] = NCI-H358, H358, K-Ras G12C, read-out: Additional H358 Cell Viability assay data (K-Ras G12C, IC50)
[11] = read-out: KRAS G12D FRET data, IC50
[12] = read-out: KRAS G12S FRET data, IC50
[13] = KRAS G12V, read-out: KRAS G12V FRET data IC50
[14] = KRAS G13D, read-out: KRAS G13D FRET data IC50
[15] = KRAS WT, read-out: KRAS WT FRET data IC50
[16] = NCI-H358, 120 h, 5-day treatment, read-out: H358 Cell Viability assay data (K-Ras G12C, IC50)
[17] = read-out: KRAS G12C FRET data, IC50
[18] = read-out: KRAS G13C FRET data, IC50

IC50 [1, 10] | IC50 [3, 11] | IC50 [4, 12] | IC50 [5, 13] | IC50 [7, 14] | IC50 [8, 15] | IC50 [9] | IC50 [1, 16] | IC50 [2, 17] | IC50 [6, 18] | SMILES | other results
– | 1000 to 10000 nM | 100 to 1000 nM | 100 to 1000 nM | 1000 to 10000 nM | 100 to 1000 nM | – | 1000 to 10000 nM | 100 to 1000 nM | 100 to 1000 nM | CCn1c(-c2cccnc2COC)c2c3cc(ccc31)-c1cc(O)cc(c1)C[C@H](NC(=O)[C@H](C(C)C)N(C)C(=O)[C@H]1CCN(C(C)=O)C1)C(=O)N1CCC[C@H](N1)C(=O)OCC(C)(C)C2 [Example A22] | –
– | – | – | – | – | – | 100 to 1000 nM | > 10000 nM | – | – | CCn1c(-c2cnccc2COC)c2c3cc(ccc31)-c1cc(O)cc(c1)C[C@H](NC(=O)[C@H](C(C)C)N(C)C(=O)[C@@H]1CCN(C[C@@H](C)O)C1)C(=O)N1CCC[C@H](N1)C(=O)OCC(C)(C)C2 [Example A31] | –
– | 100 to 1000 nM | 100 to 1000 nM | 1000 to 10000 nM | – | 100 to 1000 nM | – | 1000 to 10000 nM | 100 to 1000 nM | 10 to 100 nM | CCn1c(-c2cnccc2COC)c2c3cc(ccc31)-c1cc(O)cc(c1)C[C@H](NC(=O)[C@H](C(C)C)N(C)C(=O)[C@H]1CCN(C(C)C)C1)C(=O)N1CCC[C@H](N1)C(=O)OCC(C)(C)C2 [Example A41] | –
– | 100 to 1000 nM | 100 to 1000 nM | 1000 to 10000 nM | – | 100 to 1000 nM | – | > 10000 nM | 100 to 1000 nM | 100 to 1000 nM | CCn1c(-c2cccnc2COC)c2c3cc(ccc31)-c1cc(O)cc(c1)C[C@H](NC(=O)[C@H](C(C)C)N(C)C(=O)[C@H](N)CCCNC(=N)N)C(=O)N1CCC[C@H](N1)C(=O)OCC(C)(C)C2 [Example A48] | –
– | – | – | – | – | – | – | 1000 to 10000 nM | – | – | CCn1c(-c2ccccc2CCOC)c2c3cc(ccc31)-c1cc(O)cc(c1)C[C@H](NC(=O)[C@H](C(C)C)N(C)C(=O)CCN)C(=O)N1CCC[C@H](N1)C(=O)OCC(C)(C)C2 [Example A70] | IC50 ([2]; KRAS G12C FRET data, IC50): 1000 to 10000 nM; IC50 ([3]; KRAS G12D FRET data, IC50): 1000 to 10000 nM; IC50 ([4]; KRAS G12S FRET data, IC50): 1000 to 10000 nM; IC50 ([5]; KRAS G12V FRET data IC50, KRAS G12V): > 10000 nM; IC50 ([6]; KRAS G13C FRET data, IC50): 1000 to 10000 nM; IC50 ([7]; KRAS G13D FRET data IC50, KRAS G13D): 1000 to 10000 nM; IC50 ([8]; KRAS WT FRET data IC50, KRAS WT): 1000 to 10000 nM
– | 10 to 100 nM | 10 to 100 nM | 100 to 1000 nM | 10 to 100 nM | 10 to 100 nM | 10 to 100 nM | 1000 to 10000 nM | – | 10 to 100 nM | CCn1c(-c2cccnc2[C@H](C)OC)c2c3cc(ccc31)-c1cc(O)cc(c1)C[C@H](NC(=O)[C@H](C(C)C)N(C)C(=O)[C@@H]1CNC[C@@H]1C)C(=O)N1CCC[C@H](N1)C(=O)OCC(C)(C)C2 [Example A128] | –

The remaining lines, values behind:

SMILES | IC50 [1, 10] | IC50 [3, 11] | IC50 [4, 12] | IC50 [5, 13] | IC50 [7, 14] | IC50 [8, 15] | IC50 [9] | IC50 [1, 16] | IC50 [2, 17] | IC50 [6, 18] | other results
C=CC(=O)N1CC[C@H](C(=O)N(C)[C@H](C(=O)N[C@H]2C[C@H]3CN(CCO3)c3ccc4c(c3)c(c(-c3cccnc3[C@H](C)OC)n4CC)CC(C)(C)COC(=O)[C@@H]3CCCN(N3)C2=O)C(C)C)C1 (atropisomer, axis not shown) [Example A378] | 100 to 1000 nM | – | – | – | – | – | – | – | – | – | –
C=CC(=O)N1CC[C@H](C(=O)N(C)[C@H](C(=O)N[C@H]2C[C@H]3CN(CCCO3)c3ccc4c(c3)c(c(-c3cccnc3[C@H](C)OC)n4CC)CC(C)(C)COC(=O)[C@@H]3CCCN(N3)C2=O)C(C)C)C1 (racemic) [Example A405] | > 1000 nM | > 10000 nM | > 10000 nM | > 10000 nM | > 10000 nM | > 10000 nM | > 10000 nM | – | – | – | IC50 ([2]; KRAS G12C, read-out: KRAS G12C FRET data IC50): 1000 to 10000 nM; IC50 ([6]; KRAS G13C, read-out: KRAS G13C FRET data IC50): > 10000 nM
C=CC(=O)N1CC[C@H](C(=O)N(C)[C@H](C(=O)N[C@H]2Cc3cc(O)cc(c3)-c3ccc4c(c3)c(c(-c3ccccc3CCOC)n4C(C)(C)C#N)CC(C)(C)COC(=O)[C@@H]3CCCN(N3)C2=O)C(C)C)C1 [Example A34] | 10 to 100 nM | – | – | – | – | – | – | – | – | – | –
C=CC(=O)N1CC[C@H](C(=O)N(C)[C@H](C(=O)N[C@H]2Cc3cc(O)cc(c3)-c3ccc4c(c3)c(c(-c3ccncc3COC)n4CC)CC(C)(C)COC(=O)[C@@H]3CCCN(N3)C2=O)C(C)C)C1 [Example A91] | < 10 nM | – | – | – | – | – | – | – | – | – | –
